# According to patent US11279699B2 (Suzhou Longbiotech Pharmaceuticals Co., Ltd., priority 2016, dated 2022):
# Columns and labels:
# Format in all cases: biochemical
# JAK3 = JAK3 (Homo sapiens (Human), UniProt P52333); assay: Inhibition of JAK, luminescence kinase assay (ADP-Glo), JAK3; details: purified recombinant JAK3
# Experimental: (§1) The study of the effect of compounds on the activity of purified recombinant JAK was performed by studying the inhibitory activity of the compounds on JAK from the enzymatic level. The experimental principle is to use a luminescence kinase assay to detect the ADP content produced by the reaction of JAK with the substrate Poly (4:1 Glu, Tyr) peptide: after ADP is converted to ATP, ATP can act as a substrate for the Ultra-Glo luciferase catalytic reaction, producing an optical signal. The luminescence signal is positively correlated with the amount of ADP and kinase activity. Therefore, the inhibitory effect of the compounds on the recombinant JAK was determined by observing the luminescence signal produced by the reaction of JAK and the substrate, and was expressed by IC50.
# (§2) Experimental method: 10 different concentrations of compounds were incubated with JAK1, JAK2 and JAK3, respectively, for 60 minutes at 37° C. The substrate and ATP were then added, mixed, and reacted at 37° C. for 50 minutes. 25 μl of ADP-Glo™ was added and mixed for 2 minutes. The reaction was carried out for 50 minutes at room temperature. Further, 50 μl of the detection reagent was added and mixed for 2 minutes, and incubated at room temperature for 50 minutes, and detected by a chemiluminometer.
# JAK2 = JAK2 (Homo sapiens (Human), UniProt O60674); assay: Inhibition of JAK, luminescence kinase assay (ADP-Glo), JAK2; details: purified recombinant JAK2
# Sequence of JAK2 (O60674 whole entry): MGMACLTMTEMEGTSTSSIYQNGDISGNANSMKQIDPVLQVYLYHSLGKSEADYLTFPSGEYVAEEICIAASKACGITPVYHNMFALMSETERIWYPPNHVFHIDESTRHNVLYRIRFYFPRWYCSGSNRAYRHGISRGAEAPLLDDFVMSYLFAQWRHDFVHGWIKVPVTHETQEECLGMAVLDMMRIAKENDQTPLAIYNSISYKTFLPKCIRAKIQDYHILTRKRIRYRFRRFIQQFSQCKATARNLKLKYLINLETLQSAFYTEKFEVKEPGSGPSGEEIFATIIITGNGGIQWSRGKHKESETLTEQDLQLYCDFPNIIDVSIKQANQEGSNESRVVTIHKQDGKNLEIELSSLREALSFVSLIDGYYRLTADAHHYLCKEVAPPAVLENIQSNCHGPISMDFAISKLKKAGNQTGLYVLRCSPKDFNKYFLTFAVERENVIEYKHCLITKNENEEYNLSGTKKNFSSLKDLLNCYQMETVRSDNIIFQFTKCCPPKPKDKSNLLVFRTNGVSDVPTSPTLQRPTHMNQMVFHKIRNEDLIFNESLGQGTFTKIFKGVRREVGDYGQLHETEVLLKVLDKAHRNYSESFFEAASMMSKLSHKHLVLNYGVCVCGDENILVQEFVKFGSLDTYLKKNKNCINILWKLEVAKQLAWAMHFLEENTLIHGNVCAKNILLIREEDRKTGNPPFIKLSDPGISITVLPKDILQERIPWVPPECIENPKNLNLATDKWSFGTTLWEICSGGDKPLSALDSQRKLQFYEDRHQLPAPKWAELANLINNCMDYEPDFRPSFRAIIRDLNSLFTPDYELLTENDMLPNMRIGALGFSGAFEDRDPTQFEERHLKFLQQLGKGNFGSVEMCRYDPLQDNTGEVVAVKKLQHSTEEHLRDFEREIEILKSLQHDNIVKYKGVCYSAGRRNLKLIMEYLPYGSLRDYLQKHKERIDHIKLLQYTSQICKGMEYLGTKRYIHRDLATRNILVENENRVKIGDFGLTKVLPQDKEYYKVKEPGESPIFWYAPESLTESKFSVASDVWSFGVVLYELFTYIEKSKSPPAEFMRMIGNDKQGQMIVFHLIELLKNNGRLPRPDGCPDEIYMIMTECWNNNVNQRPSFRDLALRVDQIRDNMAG
# Experimental: as §1, §2
# JAK1 = JAK1 (Homo sapiens (Human), UniProt P23458); assay: Inhibition of JAK, luminescence kinase assay (ADP-Glo), JAK1; details: for IC50: purified recombinant JAK1
# Sequence of JAK1 (P23458 whole entry): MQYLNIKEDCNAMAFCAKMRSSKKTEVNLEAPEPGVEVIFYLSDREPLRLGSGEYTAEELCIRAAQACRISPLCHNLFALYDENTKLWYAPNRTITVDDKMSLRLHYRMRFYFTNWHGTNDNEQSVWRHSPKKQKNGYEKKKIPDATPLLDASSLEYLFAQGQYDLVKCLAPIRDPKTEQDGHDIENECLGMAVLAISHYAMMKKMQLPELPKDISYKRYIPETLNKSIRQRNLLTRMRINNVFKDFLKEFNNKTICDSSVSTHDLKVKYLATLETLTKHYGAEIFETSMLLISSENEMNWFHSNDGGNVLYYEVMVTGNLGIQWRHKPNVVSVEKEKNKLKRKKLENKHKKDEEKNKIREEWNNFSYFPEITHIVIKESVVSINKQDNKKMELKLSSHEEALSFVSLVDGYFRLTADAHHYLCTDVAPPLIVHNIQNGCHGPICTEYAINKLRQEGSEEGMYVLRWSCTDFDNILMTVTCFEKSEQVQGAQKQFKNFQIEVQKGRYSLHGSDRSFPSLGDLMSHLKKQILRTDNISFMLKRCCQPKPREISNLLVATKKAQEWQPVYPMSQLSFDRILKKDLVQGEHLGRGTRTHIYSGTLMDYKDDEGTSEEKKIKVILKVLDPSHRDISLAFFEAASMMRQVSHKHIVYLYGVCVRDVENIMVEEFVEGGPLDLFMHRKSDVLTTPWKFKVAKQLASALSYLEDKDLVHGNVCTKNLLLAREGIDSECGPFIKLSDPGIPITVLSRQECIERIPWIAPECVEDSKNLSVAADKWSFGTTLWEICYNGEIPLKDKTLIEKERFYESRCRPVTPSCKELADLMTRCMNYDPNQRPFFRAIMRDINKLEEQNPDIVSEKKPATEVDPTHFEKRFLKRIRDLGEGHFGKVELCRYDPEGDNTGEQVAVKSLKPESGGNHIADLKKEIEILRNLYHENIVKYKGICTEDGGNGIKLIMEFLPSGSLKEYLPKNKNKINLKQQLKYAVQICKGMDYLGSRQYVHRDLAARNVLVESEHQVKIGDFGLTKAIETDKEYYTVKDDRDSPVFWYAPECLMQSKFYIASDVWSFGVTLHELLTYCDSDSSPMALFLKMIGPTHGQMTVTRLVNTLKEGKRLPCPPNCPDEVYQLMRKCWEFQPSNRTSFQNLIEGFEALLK
# Experimental: as §1, §2
# [1] = Table 2, same experimental conditions
# Sequence of JAK3 (P52333 whole entry): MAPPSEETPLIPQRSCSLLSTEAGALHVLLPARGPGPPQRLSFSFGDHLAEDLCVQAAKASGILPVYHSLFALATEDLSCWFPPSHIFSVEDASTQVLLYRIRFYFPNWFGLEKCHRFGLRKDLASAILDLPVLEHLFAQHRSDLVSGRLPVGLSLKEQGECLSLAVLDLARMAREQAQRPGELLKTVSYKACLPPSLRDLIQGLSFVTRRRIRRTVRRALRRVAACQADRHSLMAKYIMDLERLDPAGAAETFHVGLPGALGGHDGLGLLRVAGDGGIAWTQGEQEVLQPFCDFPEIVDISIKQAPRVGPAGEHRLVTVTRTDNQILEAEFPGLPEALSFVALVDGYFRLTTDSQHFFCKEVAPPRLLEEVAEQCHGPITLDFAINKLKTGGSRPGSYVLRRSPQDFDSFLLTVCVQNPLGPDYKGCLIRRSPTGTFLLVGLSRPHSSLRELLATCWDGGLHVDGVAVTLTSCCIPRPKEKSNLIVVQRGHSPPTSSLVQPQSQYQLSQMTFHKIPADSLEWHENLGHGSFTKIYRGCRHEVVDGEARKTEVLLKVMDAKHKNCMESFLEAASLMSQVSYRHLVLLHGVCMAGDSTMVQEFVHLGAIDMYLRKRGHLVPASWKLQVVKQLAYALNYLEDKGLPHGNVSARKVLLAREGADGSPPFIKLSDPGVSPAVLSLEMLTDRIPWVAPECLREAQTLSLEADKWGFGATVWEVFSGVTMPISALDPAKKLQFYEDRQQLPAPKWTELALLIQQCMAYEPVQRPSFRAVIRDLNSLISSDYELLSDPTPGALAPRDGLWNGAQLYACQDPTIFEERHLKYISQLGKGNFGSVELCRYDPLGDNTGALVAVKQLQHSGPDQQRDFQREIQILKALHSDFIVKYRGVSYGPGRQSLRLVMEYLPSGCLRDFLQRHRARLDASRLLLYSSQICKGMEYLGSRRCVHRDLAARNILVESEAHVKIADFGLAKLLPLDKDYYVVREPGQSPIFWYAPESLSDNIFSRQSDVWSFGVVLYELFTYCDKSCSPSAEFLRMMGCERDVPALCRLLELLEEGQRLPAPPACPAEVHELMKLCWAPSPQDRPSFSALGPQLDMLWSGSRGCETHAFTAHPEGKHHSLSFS
IC50 (JAK3; Table 1) [µM],IC50 (JAK2; Table 1) [µM],IC50 (JAK1; Table 1) [µM],IC50 (JAK3; [1]) [µM],IC50 (JAK2; [1]) [µM],"inhibitory activity against JAK1 relative to JAK2 (selectivity) (JAK1; JAK1 versus JAK2, from Table 2) [times]",IC50 (JAK1; [1]) [µM],Structure (SMILES)
0.02 to 0.05,> 0.05,0.02 to 0.05,–,–,–,–,"CS(=O)(=O)C1CN(Cc2ccc(-c3cccn4nc(N)nc34)cc2)C1 [Example 17, 8-(4-((3-(methylsulfonyl)azetidin-1-yl)methyl)phenyl)-[1,2,4]triazolo[1,5-a]pyridin-2-ylamine]"
–,–,0.02 to 0.05,–,–,–,–,"CS(=O)(=O)C1CN(Cc2ccc(-c3cccc4nc(NC(=O)C5CC5)nn34)cc2F)C1 [Example 2, N-(5-(3-fluoro-4-((3-(methylsulfonyl)azetidin-1-yl)methyl)phenyl)-[1,2,4]triazolo[1,5-a]pyridin-2-yl]cyclopropanecarboxamide]"
> 0.05,> 0.05,0.02 to 0.05,2.43,0.498,10,0.048,"CS(=O)(=O)C1CN(Cc2ccc(-c3cccc4nc(NC(=O)C5CC5)nn34)cc2)C1 [Example 1, N-(5-(4-((3-(methylsulfonyl)azetidin-1-yl)methyl)phenyl)-[1,2,4]triazolo[1,5-a]pyridin-2-yl]cyclopropanecarboxamide]"
0.02 to 0.05,> 0.05,0.02 to 0.05,–,–,–,–,"CS(=O)(=O)C1CN(Cc2ccc(-c3cccc4nc(N)nn34)cc2)C1 [Example 8, 5-(4-((3-(methylsulfonyl)azetidin-1-yl)methyl)phenyl)-[1,2,4]triazolo[1,5-a]pyridin-2-ylamine]"
> 0.05,> 0.05,0.02 to 0.05,–,–,–,–,"CS(=O)(=O)C1CN(Cc2c(F)cc(-c3cccc4nc(NC(=O)C5CC5)nn34)cc2F)C1 [Example 3, N-(5-(3,5-difluoro-4-((3-(methylsulfonyl)azetidin-1-yl)methyl)phenyl)-[1,2,4]triazolo[1,5-a]pyridin-2-yl]cyclopropanecarboxamide]"
> 0.05,> 0.05,< 0.02,–,–,–,–,"O=S1(=O)CCN(Cc2ccc(-c3ncnc4[nH]ccc34)cc2)CC1 [Example 19, 4-(4-(7H-pyrrolo[2,3-d]pyrimidin-4-yl)benzyl)thiomorpholine 1,1-dioxide]"
> 0.05,> 0.05,0.02 to 0.05,–,–,–,–,CC(C)C(=O)Nc1nc2c(-c3ccc(CN4CC(S(C)(=O)=O)C4)cc3)cccn2n1 [Example 12]
–,–,0.02 to 0.05,–,–,–,–,"CS(=O)(=O)C1CN(Cc2ccc(-c3cccn4nc(NC(=O)C5CC5)nc34)cc2F)C1 [Example 15, N-(8-(3-fluoro-4-((3-(methylsulfonyl)azetidin-1-yl)methyl)phenyl)-[1,2,4]triazolo[1,5-a]pyridin-2-yl]cyclopropanecarboxamide]"
> 0.05,> 0.05,0.02 to 0.05,–,–,–,–,"CCS(=O)(=O)C1CN(Cc2ccc(-c3cccn4nc(NC(=O)C5CC5)nc34)cc2)C1 [Example 11, N-(8-(4-((3-(ethylsulfonyl)azetidin-1-yl)methyl)phenyl)-[1,2,4]triazolo[1,5-a]pyridin-2-yl]cyclopropanecarboxamide]"
> 0.05,> 0.05,0.02 to 0.05,–,–,–,–,"CCS(=O)(=O)C1CN(Cc2ccc(-c3cccn4nc(NC(=O)C(C)C)nc34)cc2)C1 [Example 14, N-(8-(4-((3-(ethylsulfonyl)azetidin-1-yl)methyl)phenyl)-[1,2,4]triazolo[1,5-a]pyridin-2-yl]isobutyramide]"
> 0.05,> 0.05,> 0.05,–,–,–,–,"CCS(=O)(=O)C1CN(Cc2ccc(-c3cccc4nc(NC(=O)C(C)C)nn34)cc2)C1 [Example 6, N-(5-(4-((3-(ethylsulfonyl)azetidin-1-yl)methyl)phenyl)-[1,2,4]triazolo[1,5-a]pyridin-2-yl]isobutyramide]"
–,> 0.05,0.02 to 0.05,–,–,–,–,"CCS(=O)(=O)C1CN(Cc2ccc(-c3cccc4nc(NC(=O)C5CC5)nn34)cc2)C1 [Example 7, N-(5-(4-((3-(ethylsulfonyl)azetidin-1-yl)methyl)phenyl)-[1,2,4]triazolo[1,5-a]pyridin-2-yl]cyclopropanecarboxamide]"
> 0.05,> 0.05,> 0.05,–,–,–,–,"CCS(=O)(=O)C1CN(Cc2ccc(-c3cccn4nc(N)nc34)cc2)C1 [Example 18, 8-(4-((3-(ethylsulfonyl)azetidin-1-yl)methyl)phenyl)-[1,2,4]triazolo[1,5-a]pyridin-2-ylamine]"
> 0.05,> 0.05,> 0.05,–,–,–,–,"O=C(Nc1nc2c(-c3ccc(CN4CC(S(=O)(=O)C5CC5)C4)cc3)cccn2n1)C1CC1 [Example 10, N-(8-(4-((3-(cyclopropylsulfonyl)azetidin-1-yl)methyl)phenyl)-[1,2,4]triazolo[1,5-a]pyridin-2-yl]cyclopropanecarboxamide]"
–,> 0.05,0.02 to 0.05,–,–,–,–,"CC(C)C(=O)Nc1nc2cccc(-c3ccc(CN4CC(S(=O)(=O)C5CC5)C4)cc3)n2n1 [Example 5, N-(5-(4-((3-(cyclopropylsulfonyl)azetidin-1-yl)methyl)phenyl)-[1,2,4]triazolo[1,5-a]pyridin-2-yl]isobutyramide]"
> 0.05,> 0.05,0.02 to 0.05,–,–,–,–,"CS(=O)(=O)C1CN(Cc2ccc(-c3cccn4nc(NC(=O)C5CC5)nc34)cc2)C1 [Example 9, N-(8-(4-((3-(methylsulfonyl)azetidin-1-yl)methyl)phenyl)-[1,2,4]triazolo[1,5-a]pyridin-2-yl]cyclopropanecarboxamide]"
> 0.05,> 0.05,0.02 to 0.05,–,–,–,–,"CC(C)C(=O)Nc1nc2c(-c3ccc(CN4CC(S(=O)(=O)C5CC5)C4)cc3)cccn2n1 [Example 13, N-(8-(4-((3-(cyclopropylsulfonyl)azetidin-1-yl)methyl)phenyl)-[1,2,4]triazolo[1,5-a]pyridin-2-yl]isobutyramide]"
> 0.05,> 0.05,> 0.05,–,–,–,–,"CS(=O)(=O)C1CN(Cc2c(F)cc(-c3cccn4nc(NC(=O)C5CC5)nc34)cc2F)C1 [Example 16, N-(8-(3,5-difluoro-4-((3-(methylsulfonyl)azetidin-1-yl)methyl)phenyl)-[1,2,4]triazolo[1,5-a]pyridin-2-yl]cyclopropanecarboxamide]"
